Tested on: guinea pig gall bladder
Test: Guinea pig gall bladder assay (contraction of isolated gallbladder rings)
Format: cell-based
Settings: compounds tested at 1 μM, minimum of three determinations; for Emax at 1 µM: Cavia porcellus, read-out: Contraction (% sulfated CCK-8 maximal response)
Text: GUINEA PIG GALL BLADDER ASSAY Tissue Preparation: Gallbladders were removed from guinea pigs sacrificed by cervical dislocation. The isolated gallbladders were cleaned of adherent connective tissue and cut into two rings from each animal (2-4 mm in length). The rings were subsequently suspended in organ chambers containing a physiological salt solution of the following composition (mM): NaCl (118.4); KCl (4.7); MgSO4 ×H2 O (1.2); CaCl2 ×2H2 O (2.5); […] (1.2); NaHCO3 (25) and dextrose (11.1). The bathing solution was maintained at 37° C. and aerated with 95% O2 /5%CO2. Tissues were connected via gold chains and stainless steel mounting wires to isometric force displacement transducers (Grass, Model FT03 D). Responses were then recorded on a polygraph (Grass, Model 7E). […] Assay: Rings were gradually stretched (over a 120 min. period) to a basal resting tension of 1 gm which was maintained throughout the experiment. During the basal tension adjustment period, the rings were exposed to acetylcholine (ACH, 10^-6 M) four times to verify tissue contractility. The tissues were then exposed to a submaximal dose of sulfated CCK-8 (Sigma, 3×10^-9 M). After obtaining a stable response, the tissues were washed out 3 times rapidly and every 5 to 10 minutes for 1 hour to reestablish a stable baseline. Compounds were dissolved in dimethylsulfoxide (DMSO) then diluted with water and assayed via a cumulative concentration-response curve to test compound (10^-11 to 3×10^-6 M) followed by a concentration-response curve to sulfated CCK-8 (10^-10 to 10^-6 M) in the presence of the highest dose of the test compound. As a final test, ACH (10 mM) was added to induce maximal contraction. A minimum of three determinations of activity were made for each test compound. The compounds were tested at a concentration of 1 μM and the results expressed as % sulfated CCK-8 maximal response.

## COc1ccc(N(C(=O)CN2C(=O)C(NC(=O)c3cc4ccccc4[nH]3)C(=O)N(c3ncccn3)c3ccccc32)C(C)C)cc1 (stereo not shown) [Example 5, 1H-Indole-2-carboxylic acid {1-[Isopropyl-(4-methoxy-phenyl)-carbamoylmethyl]-2,4-dioxo-5-pyrimidin-2-yl-2,3,4,5-tetrahydro-1H-benzo[b][1,4]diazepin-3-yl}-amide]
  Emax at 1 µM: 51%

## COc1ccc(N(C(=O)CN2C(=O)C(NC(=O)Nc3ccccc3)C(=O)N(c3ccccn3)c3ccccc32)C(C)C)cc1 (stereo not shown) [Example 1, 2-[2,4-Dioxo-3-(3-phenyl-ureido)-5-pyridin-2-yl-2,3,4,5-tetrahydrobenzo[b][1,4]diazepin-1-yl]-N-isopropyl-N-(4-methoxy-phenyl)-acetamide]
  Emax at 1 µM: 91%

## COc1ccc(N(C(=O)CN2C(=O)C(NC(=O)c3cc4ccccc4[nH]3)C(=O)N(c3cccnc3)c3ccccc32)C(C)C)cc1 (single isomer, unassigned) [Example 14, (+) or (-) 1H-Indole-2-carboxylic acid [I-[isopropyl-(4-methoxyphenyl)-carbamoylmethyl]-2,4-dioxo-5-pyridin-3-yl-2,3,4,5-tetrahydro-1H-benzo[b][1,4]diazepin-3-yl]amide]
  Emax at 1 µM: 84%

## COc1ccc(N(C(=O)CN2C(=O)C(NC(=O)c3cc4ccccc4[nH]3)C(=O)N(c3ccccn3)c3ccccc32)C(C)C)cc1 (single isomer, unassigned) [Example 3, (+) or (-) 1H-Indole-2-carboxylic acid {1-[Isopropyl-(4-methoxy-phenyl)-carbamoylmethyl]-2,4-dioxo-5-pyridin-2-yl-2,3,4,5-tetrahydro-1H-benzo[b][1,4]diazepin-3-yl}-amide]
  Emax at 1 µM: 83%

## COc1ccc(N(C(=O)CN2C(=O)C(NC(=O)c3cc4ccccc4[nH]3)C(=O)N(c3cccnc3)c3ccccc32)C(C)C)cc1 (stereo not shown) [Example 7, 1H-Indole-2-carboxylic acid {1[isopropyl-(4-methoxy-phenyl)-carbamoylmethyl]-2,4-dioxo-5-pyridin-3-yl-2,3,4,5-tetrahydro-1H-benzo[b][1,4]diazepin-3-yl}-amide]
  Emax at 1 µM: 77%

## COc1ccc(N(C(=O)CN2C(=O)C(NC(=O)Nc3cccc(C(=O)O)c3)C(=O)N(c3cccnc3)c3cc(F)ccc32)C(C)C)cc1 (stereo not shown) [Example 13, 3-(3-{7-Fluoro-1-[isopropyl-(4-methoxy-phenyl)-carbamoylmethyl]-2,4-dioxo-5-pyridin-3-yl-2,3,4,5-tetrahydro-1H-benzo[b][1,4]diazepin-3-yl}-ureido)-benzoic acid]
  Emax at 1 µM: 96%

## COc1ccc(N(C(=O)CN2C(=O)C(NC(=O)c3cc4ccccc4[nH]3)C(=O)N(c3ccccn3)c3ccccc32)C(C)C)cc1 (stereo not shown) [Example 2, 1H-Indole-2-carboxylic acid {1-[Isopropyl-(4-methoxy-phenyl)-carbamoylmethyl]-2,4-dioxo-5-pyrdin-2-yl-2,3,4,5-tetrahydro-1H-benzo[b][1,4]diazepin-3-yl}-amide]
  Emax at 1 µM: 64%

## COc1ccc(N(C(=O)CN2C(=O)C(NC(=O)c3cc4ccccc4[nH]3)C(=O)N(c3ccncc3)c3ccccc32)C(C)C)cc1 (stereo not shown) [Example 11, 1H-Indole-2-carboxylic acid {1-[Isopropyl-(4-methoxy-phenyl)-carbamoylmethyl]-2,4-indoledioxo-5-pyridin4-yl-2,3,4,5,5a, 9a-hexahydro-1H-benzo[b][1,4]diazepin-3-yl}-amide]
  Emax at 1 µM: 67%

## COc1ccc(N(C(=O)CN2C(=O)C(NC(=O)c3cc4ccccc4[nH]3)C(=O)N(c3cccnc3)c3ccccc32)C(C)C)cc1 (single isomer, unassigned) [Example 15, (+) or (-) 1H-Indole-2-carboxylic acid [I-[isopropyl-(4-methoxyphenyl)-carbamoylmethyl]-2,4-dioxo-5-pyridin-3-yl-2,3,4,5-tetrahydro-1H-benzo[b][1,4]diazepin-3-yl]amide]
  Contraction (% sulfated CCK-8 maximal response): 93%

## COc1ccc(N(C(=O)CN2C(=O)C(NC(=O)Nc3ccccc3)C(=O)N(c3cccnc3)c3ccccc32)C(C)C)cc1 (stereo not shown) [Example 8, 2-[2,4-dioxo-3-(3-phenyl-ureido)-5-pyridin-3-yl-2,3,4,5-tetrahydrobenzo[b][1,4]diazepin-1-yl]-N-isopropyl-N-(4-methoxy-phenyl) acetamide]
  Emax at 1 µM: 81%

## COc1ccc(N(C(=O)CN2C(=O)C(NC(=O)c3cc4ccccc4[nH]3)C(=O)N(c3ccccn3)c3ccccc32)C(C)C)cc1 (single isomer, unassigned) [Example 4, (+) or (-) 1H-Indole-2-carboxylic acid {1-[Isopropyl-(4-methoxy-phenyl)-carbamoylmethyl]-2,4-dioxo-5-pyridin-2-yl-2,3,4,5-tetrahydro-1H-benzo[b][1,4]diazepin-3-yl}-amide]
  Contraction (% sulfated CCK-8 maximal response): 67%

## COc1ccc(N(C(=O)CN2C(=O)C(NC(=O)c3cc4ccccc4[nH]3)C(=O)N(c3c(C)nn(C)c3C)c3ccccc32)C(C)C)cc1 (stereo not shown) [Example 6, 1H-Indole-2-carboxylic acid [1-[isopropyl-(4-methoxy-phenyl)-carbamoylmethyl]-2,4-dioxo-5-(1,3,5-trimethyl-1H-pyrazol-4-yl)-2,3,4,5-tetrahydro-1H-benzo[b][1,4]diazepin-3-yl]-amide]
  Emax at 1 µM: 32%

## COc1ccc(N(C(=O)CN2C(=O)C(NC(=O)Nc3cccc(C(=O)O)c3)C(=O)N(c3cccnc3)c3ccccc32)C(C)C)cc1 (stereo not shown) [Example 10, 3-(3-{1-[isopropyl-(4-methoxy-phenyl)-carbamoylmethyl]-2,4-dioxo-5-pyridin-3-yl-2,3,4,5-tetrahydro-1H-benzo[b][1,4]diazepin-3-yl}-ureido)-benzoic acid]
  Emax at 1 µM: 83%

From patent publication US5739129A, “CCK or gastrin modulating 5-heterocyclic-1, 5 benzodiazepines” (Glaxo Wellcome Inc., priority 1994, dated 1998)
